Data on 22 molecules can be found in patent US7294639B2, “Biaromatic ligand activators of PPARγ receptors” (Galderma Research & Development, priority 2001, dated 2007).

Experiment [1] deals with T1, chimeric Gal-PPARγ receptor (LBD) (Homo sapiens, UniProt P37231).
T1 construct: chimeric Gal-PPARγ receptor (LBD); expressed in transfected cells; host or cells: HeLa cells, stably transfected
T1 sequence (P37231 238-503 limits assumed): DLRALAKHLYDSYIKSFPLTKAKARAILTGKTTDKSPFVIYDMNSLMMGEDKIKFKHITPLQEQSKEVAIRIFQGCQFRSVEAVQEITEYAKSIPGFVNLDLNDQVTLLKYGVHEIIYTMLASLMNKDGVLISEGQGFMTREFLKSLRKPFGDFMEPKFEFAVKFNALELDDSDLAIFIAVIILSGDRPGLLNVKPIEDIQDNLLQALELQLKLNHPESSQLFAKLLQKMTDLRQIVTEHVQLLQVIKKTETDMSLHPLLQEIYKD
The experiment in a line: Transactivation test, PPARγ agonist activity (luciferase). Type of experiment: cell-based. To be noted: concentration giving 50% activation relative to the reference agonist. The procedure: The agonist activity towards the PPARγ receptors of the compounds according to the invention may be evaluated by transactivation tests.
The capacity of the molecules to activate and/or inhibit the PPARγ receptors is evaluated from Hela cells stably transfected with the chimeric Gal-PPARγ receptor (LBD).
96-well plates are inoculated at the rate of 10000 cells/100 μl/well in DMEM 10% SDL medium and then placed for 24 hours at 37° C., 7% CO2.
To determine the PPARγ agonist activity, the cells are then treated by addition of 5 μl/well of the molecules to be tested at the final concentration of 1 μM. Cells are also treated in parallel with a reference agonist, (−)-3-{4-[2-(benzooxazol-2-ylmethylamino)ethoxy]phenyl}-2-ethoxypropionic acid, 1 μM.
After another incubation of 24 hours at 37° C., 7% CO2, a luciferase assay is carried out with the aid of the “Steady-Glo Luciferase Assay System” kit from Promega. The luminescence is counted on a Microbeta Trilux microplate reader (Wallac).
The agonist activity of the test product will be expressed as a percentage activation relative to the control agonist, the reference agonist at 1 μM.
The AC50, expressed in nM, is determined as the concentration which makes it possible to obtain 50% activation of the basal signal relative to the reference agonist.

A further experiment has as its target T2, human PPARγ receptor (Homo sapiens, UniProt P37231).
T2 construct: made in house; host or cells: SF9 insect cells, recombinant baculovirus
Description: Binding test by competition with tritiated reference agonist (hydroxyapatite gel). To be noted: hPPARγ/RXRα heterodimers from SF9 insect cells. The procedure: The affinity of the compounds of the invention for the human PPARγ receptor was determined in a test of binding, by competition for the attachment of a reference agonist, the following tritiated compound 5-{4-[2-(methylpyridin-2-ylamino)ethoxy]benzyl}thiazolidine-2,4-dione.
The receptors are obtained by infecting SF9 insect cells with a recombinant bacculovirus. They exist in the form of hPPARγ/RXRα heterodimers. The presence of RXRα increases the solubility and the stability of the hPPARγ receptor and, consequently, its biological activity, without as a result interfering in the determination of the binding constants.
The technique of adsorption on hydroxyapatite gel was used to separate the ligand bound to the receptor from the free ligand. The results are expressed as Kd value (nM) which represents the dissociation constant at equilibrium obtained for each compound.

T2 sequence (P19793 whole entry): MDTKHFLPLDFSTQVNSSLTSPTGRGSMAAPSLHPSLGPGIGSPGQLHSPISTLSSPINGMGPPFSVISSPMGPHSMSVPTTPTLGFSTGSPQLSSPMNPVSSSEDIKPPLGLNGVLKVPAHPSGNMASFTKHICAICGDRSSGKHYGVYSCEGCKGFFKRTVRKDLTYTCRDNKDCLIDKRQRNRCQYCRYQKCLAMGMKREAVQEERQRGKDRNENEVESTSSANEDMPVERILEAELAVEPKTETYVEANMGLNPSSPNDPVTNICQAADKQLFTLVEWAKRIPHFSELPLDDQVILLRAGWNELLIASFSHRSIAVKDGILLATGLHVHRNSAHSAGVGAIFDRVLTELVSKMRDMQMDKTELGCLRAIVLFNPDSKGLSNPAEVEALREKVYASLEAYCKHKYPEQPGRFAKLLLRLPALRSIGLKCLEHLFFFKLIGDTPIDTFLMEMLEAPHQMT
T2 sequence (P37231 whole entry): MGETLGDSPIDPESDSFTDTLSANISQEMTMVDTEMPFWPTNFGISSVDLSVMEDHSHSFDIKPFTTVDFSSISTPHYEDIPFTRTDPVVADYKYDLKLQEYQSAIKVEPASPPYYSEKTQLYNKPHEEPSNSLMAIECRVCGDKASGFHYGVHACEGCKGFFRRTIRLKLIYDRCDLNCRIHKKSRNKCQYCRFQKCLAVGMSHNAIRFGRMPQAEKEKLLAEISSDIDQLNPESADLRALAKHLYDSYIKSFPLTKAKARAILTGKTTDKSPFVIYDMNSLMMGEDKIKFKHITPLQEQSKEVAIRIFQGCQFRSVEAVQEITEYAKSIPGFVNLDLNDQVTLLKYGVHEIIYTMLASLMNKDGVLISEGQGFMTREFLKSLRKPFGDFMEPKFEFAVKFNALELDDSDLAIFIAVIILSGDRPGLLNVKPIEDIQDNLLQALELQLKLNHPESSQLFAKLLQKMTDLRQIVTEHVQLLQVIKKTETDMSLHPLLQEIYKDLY

In turn, `COC(=O)CCCCCCCCC(=O)N(C)Cc1cccc(-c2ccc(CC3SC(=O)NC3=O)cc2)c1` (centres unmarked) [Example 2, methyl 9-{[4′-(2,4-dioxothiazolidin-5-ylmethyl)biphenyl-3-ylmethyl]methylcarbamoyl}nonanoate] had a concentration at half-maximal activity (AC50) in experiment [1] of 55.5 nM.

At human PPARγ receptor, `COC(=O)c1ccc(C(=O)N(C)Cc2cccc(-c3ccc(CC4SC(=O)NC4=O)cc3)c2)cc1` (centres unmarked) [Example 3, methyl N-[4′-(2,4-dioxothiazolidin-5-ylmethyl)biphenyl-3-ylmethyl]-N-methylterephthalamate] yielded a Kd of 0.375 µM. Half-maximal activity in experiment [1] (AC50) was put at 13.1 nM. Take `CN(Cc1cccc(-c2ccc(CC3SC(=O)NC3=O)cc2)c1)C(=O)CCC1CCCC1` (centres unmarked) [Example 4, 3-cyclopentyl-N-[4′-(2,4-dioxothiazolidin-5-ylmethyl)biphenyl-3-ylmethyl]-N-methylpropionamide]: binding at human PPARγ receptor was characterised by a dissociation constant (Kd) of 0.25 µM. This molecule gave an AC50 in experiment [1] of 24.2 nM.

As for `CN(Cc1cccc(-c2ccc(CC3SC(=O)NC3=O)cc2)c1)C(=O)c1cccc2ccccc12` (centres unmarked) [Example 5, N-[4′-(2,4-dioxothiazolidin-5-ylmethyl)biphenyl-3-ylmethyl]-N-methylnaphthalene-1-carboxamide], at human PPARγ receptor, the Kd is 0.5 µM. In addition, the AC50 in experiment [1] was determined as 23.3 nM. In the same order, the values of `CN(Cc1cccc(-c2ccc(CC3SC(=O)NC3=O)cc2)c1)C(=O)c1ccc2ccccc2c1` (centres unmarked) [Example 6, N-[4′-(2,4-dioxothiazolidin-5-ylmethyl)biphenyl-3-ylmethyl]-N-methylnaphthalene-2-carboxamide] are 0.06 µM and 4 nM. With `CN(Cc1cccc(-c2ccc(CC3SC(=O)NC3=O)cc2)c1)C(=O)COc1ccccc1` (centres unmarked) [Example 7, N-[4′-(2,4-dioxothiazolidin-5-ylmethyl)biphenyl-3-ylmethyl]-N-methyl-2-phenoxyacetamide], the AC50 in experiment [1] was 63.8 nM.

As to `CN(Cc1cccc(-c2ccc(CC3SC(=O)NC3=O)cc2)c1)C(=O)c1cccn1C` (centres unmarked) [Example 8, N-[4′-(2,4-dioxothiazolidin-5-ylmethyl)biphenyl-3-ylmethyl]-N-methyl-1-methyl-1H-pyrrole-2-carboxamide], the activity in experiment [1] was half-maximal at 307 nM (AC50). For the molecule `CN(Cc1cccc(-c2ccc(CC3SC(=O)NC3=O)cc2)c1)C(=O)C12CC3CC(CC(C3)C1)C2` (centres unmarked) [Example 9, N-[4′-(2,4dioxothiazolidin-5-ylmethyl)biphenyl-3-ylmethyl]-N-methyladamantane-1-carboxamide], the activity in experiment [1] was half-maximal at 182 nM (AC50). As for `CN(Cc1cccc(-c2ccc(CC3SC(=O)NC3=O)cc2)c1)C(=O)c1ccc(-c2ccccc2)cc1` (centres unmarked) [Example 10, N-[4′-(2,4-dioxothiazolidin-5-ylmethyl)biphenyl-3-ylmethyl]-N-methylbiphenyl-4-carboxamide], the affinity on human PPARγ receptor, expressed as Kd, was 0.06 µM. In experiment [1], this molecule returned an AC50 of 3.3 nM. As for `CN(Cc1cccc(-c2ccc(CC3SC(=O)NC3=O)cc2)c1)C(=O)c1cc2ccccc2s1` (centres unmarked) [Example 11, N-[4′-(2,4-dioxothiazolidin-5-ylmethyl)biphenyl-3-ylmethyl]-N-methylbenzo[b]thio-phene-2-carboxamide], binding at human PPARγ receptor was characterised by a dissociation constant (Kd) of 0.375 µM. Also, the AC50 in experiment [1] was found to be 15.1 nM. In the same order, the values of `CN(Cc1cccc(-c2ccc(CC3SC(=O)NC3=O)cc2)c1)C(=O)CCCCC(=O)c1ccccc1` (centres unmarked) [Example 12, N-[4′-(2,4-dioxothiazolidin-5-ylmethyl)biphenyl-3-ylmethyl]-N-methyl-6-oxo-6-phenylhexanamide] are 0.06 µM and 3.2 nM. As to `CN(Cc1cccc(-c2ccc(CC3SC(=O)NC3=O)cc2)c1)C(=O)c1ccc(N(C)C)c2ccccc12` (centres unmarked) [Example 13, 4dimethylamino-N-[4′-(2,4-dioxothiazolidin-5-ylmethyl)biphenyl-3-ylmethyl]-N-methylnaphthalene-1-carboxamide], the affinity at human PPARγ receptor, expressed as Kd, was 0.5 µM. In experiment [1], this molecule gave an AC50 of 36.7 nM.

In turn, `CN(Cc1cccc(-c2ccc(CC3SC(=O)NC3=O)cc2)c1)C(=O)c1ccc(S(C)(=O)=O)cc1` (centres unmarked) [Example 14, N-[4′-(2,4-dioxothiazolidin-5-ylmethyl)biphenyl-3-ylmethyl]-4-methanesulphonyl-N-methylbenzamide] showed an AC50 in experiment [1] of 143 nM.

For the molecule `CN(Cc1cccc(-c2ccc(CC3SC(=O)NC3=O)cc2)c1)C(=O)c1ccc(C(=O)c2ccccc2)cc1` (centres unmarked) [Example 15, N-[4′-(2,4-dioxothiazolidin-5-ylmethyl)biphenyl-3-ylmethyl]-N-methyl-4-(1-phenylmethanoyl)benzamide], binding at human PPARγ receptor was put at a Kd of 0.06 µM. In experiment [1], this molecule registered an AC50 of 5 nM.

In the case of `COCCOCOc1ccc2cc(C(=O)N(C)Cc3cccc(-c4ccc(CC5SC(=O)NC5=O)cc4)c3)ccc2c1` (centres unmarked) [Example 16, 6-(2-methoxyethoxymethoxy)-N-[4′-(2,4-dioxothiazolidin-5-ylmethyl)biphenyl-3-ylmethyl]-N-methylnapthalene-2-carboxamide], the Kd on human PPARγ receptor worked out at 0.004 µM. The activity in experiment [1] was half-maximal at 0.55 nM (AC50).

As for `CN(Cc1cccc(-c2ccc(CC3SC(=O)NC3=O)cc2)c1)C(=O)c1ccc2cc(O)ccc2c1` (centres unmarked) [Example 17, 6-hydroxy-N-[4′-(2,4-dioxothiazolidin-5-ylmethyl)biphenyl-3-ylmethyl]-N-methylnaphthalene-2-carboxamide], binding at human PPARγ receptor was put at a Kd of 0.015 µM. Also, in experiment [1], the activity was half-maximal at 3.8 nM (AC50).

`CSc1ccc(C(=O)N(C)Cc2cccc(-c3ccc(CC4SC(=O)NC4=O)cc3)c2)cc1` (centres unmarked) [Example 18, N-[4′-(2,4-dioxothiazolidine-5-ylmethyl)biphenyl-3-ylmethyl]-N-methyl-4-methylsulphanylbenzamide] had an AC50 in experiment [1] of 42.5 nM.

Turning to `CCO[C@@H](Cc1ccc(-c2cccc(CN(C)C(=O)c3ccc(-c4ccccc4)cc3)c2)cc1)C(=O)O` [Example 19, (S)-3-(3′-{[(1-biphenyl-4-ylmethanoyl)methylamino]methyl}biphenyl-4-yl)-2-ethoxypropionic acid], the Kd on human PPARγ receptor worked out at 0.008 µM. In addition, in experiment [1], the AC50 amounted to 2.9 nM. The molecule `CCO[C@@H](Cc1ccc(-c2cccc(CN(C)C(=O)CCCCC(=O)c3ccccc3)c2)cc1)C(=O)O` [Example 20, (S)-2-ethoxy-3-(3′-{[methyl(6-oxo-6-phenylhexanoyl)amino]methyl}biphenyl-4-yl)propionic acid] had a Kd at human PPARγ receptor of 0.0095 µM. In experiment [1], the AC50 was determined as 7.7 nM. As for `CN(C(=O)Nc1ccc2ccccc2c1)c1cccc(-c2ccc(CC3SC(=O)NC3=O)cc2)c1` (centres unmarked) [Example 21, 1-[4′-(2,4-dioxothiazolidin-5-ylmethyl)biphenyl-3-yl]-1-methyl-3-naphthalen-2-ylurea], in experiment [1], the half-maximal activity concentration (AC50) came to 22 nM. In the case of `CN(C)c1ccc(NC(=O)N(C)c2cccc(-c3ccc(CC4SC(=O)NC4=O)cc3)c2)cc1` (centres unmarked) [Example 22, 3-(4-dimethylaminophenyl)-1-[4′-(2,4-dioxothiazolidin-5-ylmethyl)biphenyl-3-yl]-1-methylurea], the activity in experiment [1] was half-maximal at 4.2 nM (AC50). Take `CCO[C@@H](Cc1ccc(-c2cccc(CN(C)C(=O)c3ccc4cc(OCOCCOC)ccc4c3)c2)cc1)C(=O)O` [Example 23, (S)-2-ethoxy-3-{3′-[({1-[6-(2-methoxyethoxymethoxy)naphthalen-2-yl]methanoyl}methylamino)methyl]biphenyl-4-yl}propionic acid]: the AC50 in experiment [1] turned out to be 1 nM.

The AC50 is the concentration giving half of the maximal activity seen. A high value points to weaker potency. Broadly, the Kd is a measure of binding affinity in units of concentration.
